Entries after “also recorded” stand apart in the source; their conditions may differ.
Assays:
[1] = Efficacy in hAR100Q murine model of SBMA (body weight, grip strength, treadmill, survival); type: in vivo, mouse
From the text: (§1) Male mice harboring approximately 73±14 copies of full-length human AR harboring 100 CAG repeats in exon 1 (hAR100Q) (“hAR100Q mice”) were used in this study. hAR100Q mice were obtained from mice (C57BL/6J background) expressing heterozygous human […] AR100Q (AR100Q+/−) under the control of the cytomegalovirus immediate-early enhancer and the chicken beta-actin (pCAGGS) promoter. These transgenic lines were maintained, and the colony expanded by breeding with C57BL/6J (Jackson Laboratory) wild-type (WT) mice.
(§2) A total of […] hAR100Q and 20 littermate controls were used for this study. Each genotype was divided into two groups of 10 (control vs Compound A) giving a total of four separate groups (WT control, WT Compound A, hAR100Q control, and hAR100Q Compound A). All mice were fed control chow beginning at 4 weeks of age. At 5 weeks of age, treated groups were switched to Compound A-formulated chow and the remaining mice were fed control chow. Body weights were recorded weekly starting at 5 weeks of age.
(§3) Compound A was formulated at 100 parts per million (ppm) Compound A in rodent chow (Purina #5015). This dose level (100 ppm) approximates a 15 mg/kg dose for a mouse that weighs 20 g and consumes 3 g of chow per day. For control chow, rodent chow (Purina #5015) was re-pelleted in an identical manner to the Compound A-formulated chow.
(§4) A grip strength apparatus was utilized to measure the force exerted by the forepaws only, or all four paws of mice once per week beginning at 7 weeks of age. The apparatus was placed on a sturdy flat lab bench and the apparatus's grid wire mesh was used for all four paws. Individual mice grasped a wire mesh (all four paws) and were gently pulled by the base of their tail to measure their maximum force exerted to maintain their grip. The grip strength assay was conducted 6 times per mouse, for all four paws.
(§5) A Touchscreen Treadmill was utilized to analyze length of time running at increasing speeds until exhaustion. Individual mice ran on a flat treadmill with a graded acceleration protocol consisting of 10 meters (m)/min. for the first 40 min., with the speed increasing thereafter by increments of 1 m/min. every 10 min. for 30 min., and then finally increasing speed by increments of 1 m/min. every 5 min. until the mice were exhausted. The exhaustion was determined by 5 consecutive seconds or 20 overall seconds of failure to exercise (by staying on shock rods at the start of the treadmill). Treadmill training was performed for 2 days before the first week of testing. The training protocol on day 1 consisted of 5 min. at 8 m/min, while day 2 consisted of 5 min. at 8 m/min. followed by 5 min. at 10 m/min.
(§6) In the murine model of SBMA used here (hereafter referred to as hAR100Q mice), which also expresses endogenous mouse AR, approximately 73±14 copies of full-length human AR with 100 CAG repeats (hAR100Q) are driven by the pCAGGS promoter (Chivet, M. et al. 2020, Cells 9, 325). Heterologous expression of hAR100Q results in muscle atrophy, motor deficits, and premature death (Chivet, M. et al. 2020, Cells 9, 325). Symptom onset starts as early as 8 weeks of age and get progressively worse until week 13-14, at which time mice are euthanized because of extreme immobility. In this study, male hAR100Q mice and littermate controls (10 mice in each group) were fed vehicle chow or Compound A-formulated chow at an approximate dose of 15 mg/kg. In-diet dosing was used in lieu of PO dosing due to the fragile nature of this disease model. Compound A-formulated chow was introduced at 5 weeks of age. In addition to weekly weight measurements, mice were evaluated using behavioral assays, including weekly grip strength measurements and forced treadmill tests at 11 weeks of age.

hAR100Q mice = experiment: as above; type: in vivo, mouse
From the text: as §1, §2, §3, §4, §5, §6

human AR100Q [2] = molecular target: T1, human AR100Q (Homo sapiens, UniProt P10275, INS80QQQQQQQQQQQQQQQQQQQQQQQQQQQQQQQQQQQQQQQQQQQQQQQQQQQQQQQQQQQQQQQQQQQQQQQQQQQQQ); experiment: hAR100Q (polyQ-AR) degradation in muscle of hAR100Q mice, capillary immunoassay; type: in vivo
T1 construct: full-length human AR harboring 100 CAG repeats in exon 1 (hAR100Q); from tissue; host or cells: LABC and quadriceps muscle of transgenic hAR100Q mice (C57BL/6J background, pCAGGS promoter)
T1 sequence (P10275 with tags, fused parts or gaps with the stated changes): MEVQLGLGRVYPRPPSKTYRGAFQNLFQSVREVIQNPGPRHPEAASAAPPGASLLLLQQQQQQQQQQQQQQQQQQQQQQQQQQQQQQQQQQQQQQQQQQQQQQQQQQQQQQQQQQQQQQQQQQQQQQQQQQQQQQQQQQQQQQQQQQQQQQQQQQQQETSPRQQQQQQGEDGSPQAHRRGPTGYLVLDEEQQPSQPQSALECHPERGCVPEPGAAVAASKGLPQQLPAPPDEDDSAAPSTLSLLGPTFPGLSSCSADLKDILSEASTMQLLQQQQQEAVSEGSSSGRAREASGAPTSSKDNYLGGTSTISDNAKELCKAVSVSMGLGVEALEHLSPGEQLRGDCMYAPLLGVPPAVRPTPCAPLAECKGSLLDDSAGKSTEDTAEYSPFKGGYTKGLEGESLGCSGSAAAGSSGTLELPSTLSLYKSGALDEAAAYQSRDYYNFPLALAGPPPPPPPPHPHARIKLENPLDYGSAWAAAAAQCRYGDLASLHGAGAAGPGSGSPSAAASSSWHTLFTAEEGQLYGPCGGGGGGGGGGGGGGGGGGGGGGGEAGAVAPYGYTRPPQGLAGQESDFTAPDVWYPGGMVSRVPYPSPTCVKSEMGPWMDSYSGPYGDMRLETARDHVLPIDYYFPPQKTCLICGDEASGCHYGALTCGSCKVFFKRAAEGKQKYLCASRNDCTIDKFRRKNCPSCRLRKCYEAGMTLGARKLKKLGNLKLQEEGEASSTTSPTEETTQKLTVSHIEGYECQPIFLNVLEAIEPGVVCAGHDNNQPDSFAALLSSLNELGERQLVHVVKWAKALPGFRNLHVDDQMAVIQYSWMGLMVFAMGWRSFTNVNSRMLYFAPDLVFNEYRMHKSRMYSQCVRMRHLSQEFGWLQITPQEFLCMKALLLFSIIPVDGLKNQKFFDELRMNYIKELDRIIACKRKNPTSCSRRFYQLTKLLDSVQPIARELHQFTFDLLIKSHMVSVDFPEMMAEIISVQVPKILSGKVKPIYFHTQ
Protocol: (§7) Mouse endogenous AR, human AR100Q, and high molecular weight hAR100Q from hAR100Q mice were quantified by capillary immunoassay. Tissue lysates were prepared as described above using antibodies to AR and resolved by capillary electrophoresis (ProteinSimple). High molecular weight AR was quantified as the area under the curve (AUC) from 300 to 600 kDa.
(§8) A parallel cohort of hAR100Q mice was maintained in order to evaluate AR degradation at the 11-week timepoint. hAR100Q mice in this tissue cohort were fed chow identical to the mice that underwent muscle strength and endurance tests and were euthanized at 11-weeks of age.

human AR100Q [3] = experiment: as above; type: in vivo
Protocol: as §7, §8

polyQ-AR = experiment: Global proteomics in SBMA hiPSC-myotubes: polyQ-AR and specificity; type: cell-based, human
From the text: (FIG. 12A). […] (FIG. 12C).

## CC(C)N(CC1CCN(c2ncc(C(=O)N[C@H]3C(C)(C)[C@H](Oc4ccc(C#N)c(Cl)c4)C3(C)C)cn2)CC1)[C@H]1C[C@H](Oc2ccc3c(c2)C(=O)N(C2CCC(=O)NC2=O)C3=O)C1 (some centres unmarked) [Compound A, N-((1r,3r)-3-(3-chloro-4-cyanophenoxy)-2,2,4,4-tetramethylcyclobutyl)-2-(4-((((1r,3r)-3-((2-(2,6-dioxopiperidin-3-yl)-1,3-dioxoisoindolin-5-yl)oxy)cyclobutyl)(isopropyl)amino)methyl)piperidin-1-yl)pyrimidine-5-carboxamide]
[1]; WT littermates, chow approx. 15 mg/kg, vs vehicle
  all paw grip strength in WT littermates: similar
[1]; WT littermates, week 11, vehicle versus compound chow
  muscle endurance, forced treadmill distance, WT littermates: No differences were observed
[1]; male WT littermates, formulated chow approx. 15 mg/kg
  body weight over time in WT littermates: no impact
hAR100Q mice; hAR100Q mice, formulated chow, birth to euthanasia
  median lifespan: 151 days
hAR100Q mice; hAR100Q mice, week 11, chow approx. 15 mg/kg
  muscle endurance, forced treadmill distance, hAR100Q mice: performed as well as WT littermates
hAR100Q mice; hAR100Q mice, weekly from 7 weeks, chow approx. 15 mg/kg
  all paw grip strength in hAR100Q mice: delayed the decline and magnitude of grip strength decline
hAR100Q mice; male hAR100Q mice, formulated chow approx. 15 mg/kg from 5 weeks of age, vs vehicle
  body weight over time in hAR100Q mice: rescued weight loss
Human AR100Q [2]; LABC, 11 weeks of age
  reduction of high molecular weight (aggregated) hAR100Q in LABC: did not induce degradation; also recorded: did not reach significance
Human AR100Q [2]; quadriceps
  reduction of high molecular weight polyQ-AR (HMW hAR100Q) in quadriceps: trended towards a reduction
Human AR100Q [3]; LABC, 11 weeks of age, chow approx. 15 mg/kg
  reduction of monomeric hAR100Q (polyQ-AR) in LABC vs vehicle: 70%
Human AR100Q [3]; quadriceps
  reduction of polyQ-AR (hAR100Q) in quadriceps: 43%
Human AR100Q [3]; quadriceps, AR and polyQ-AR together
  AR/polyQ-AR degraded in the quadriceps muscle: 40-60%
polyQ-AR; 12 nM, SBMA hiPSC-myotubes
  polyQ-AR degradation compared to control, global proteomics: induces degradation of polyQ-AR; also recorded: degrades polyQ-AR
polyQ-AR; out of ~7,600 proteins detected in myotubes
  neosubstrates (off-target substrates) identified: single neosubtrate; also recorded: only one neosubstrate
